The values below come from PMC4679366 (European journal of medicinal chemistry, 2014).

Read-outs that look alike come from different tables or passages of the source. Where only a bound is given, the exact number is not on record here.

Experiment [1] concerns P. falciparum 3D7. The conditions noted are these: read-out: Pf 3D7 IC50, asexual blood stages; cited from earlier work.
Experiment [2] deals with P. berghei exo-erythrocytic forms (EEF). Kind of experiment: Pb liver stage assay. Format: cell-based. As to conditions: Plasmodium berghei, 48 h, read-out: Pb EEF IC50, P. berghei exo-erythrocytic forms in HepG2-A16-CD81EGFP cells, 48 h.
The next experiment concerns P. falciparum. As to conditions: read-out: P. falciparum IC50; cited from earlier work.
A further experiment has as its system P. falciparum histone H4. Kind of experiment: Histone hyperacetylation assay. The conditions noted are these: 500 nM, 3 h, trophozoite-stage 3D7, Western blot anti-acetyl H4. The experiment is classed as cell-based, Plasmodium falciparum. (In western blotting, separated proteins are transferred to a membrane and probed.)
Experiment [3] has as its system P. falciparum NF54 late stage gametocytes (IV–V). Description: Late stage P. falciparum. The experiment is classed as cell-based. As to conditions: Plasmodium falciparum, NF54, HN12, 72 h, read-out: Pf LSG IC50.
The test system of experiment [4] is P. falciparum 3D7. Kind of experiment: Asexual stage in vitro antimalarial assay, [3H]-hypoxanthine incorporation. The experiment is classed as cell-based. The conditions noted are these: Plasmodium falciparum, 3D7, read-out: Pf 3D7 IC50.
Another experiment concerns HepG2 liver cells. Description: HepG2 toxicity assay. Format: cell-based. As to conditions: Homo sapiens, HepG2, read-out: HepG2 IC50.
A further experiment relates to P. falciparum histone H3. Kind of experiment: Histone hyperacetylation assay. Format: cell-based, Plasmodium falciparum. As to conditions: 500 nM, 3 h, trophozoite-stage 3D7, Western blot anti-acetyl H3.
The next experiment relates to human HDAC4. As to conditions: cited from earlier work.
The subject of a further experiment is human HDAC5. As to conditions: cited from earlier work.

For the molecule `O=C(CCCCCCC(=O)Nc1ccccc1)NO` [SAHA, suberoylanilide hydroxamic acid], the IC50 in the experiment on P. falciparum 3D7 [1] is 0.13 µM. Take `CCCOc1ccc(C(=O)NOCCCCCC(=O)NO)cc1` [Compound 1m, N-((6-(Hydroxyamino)-6-oxohexyl)oxy)-4-propoxybenzamide]: the IC50 in experiment [2] was over 5 µM.

For `CC(/C=C/C(=O)NO)=C\[C@@H](C)C(=O)c1ccc(N(C)C)cc1` [TSA, Trichostatin A], the IC50 with P. falciparum is 0.008 to 0.011 µM. Further, the “hyperacetylation of P. falciparum histone H4” value in the experiment with P. falciparum histone H4 is “caused hyperacetylation”.

For `O=C(/C=C/c1ccccc1)N[C@@H](CCCCCC(=O)NO)C(=O)Nc1cccc2cccnc12` [Compound 2-ASA-9], the IC50 with P. falciparum is 0.015 to 0.039 µM. On to `CCN(CC)CCCC(C)Nc1ccnc2cc(Cl)ccc12` (stereo not drawn) [Chloroquine], for which the IC50 is over 120 µM in experiment [3] and 0.01 µM in the experiment with P. falciparum 3D7 [4]. As for `Nc1cccc(-c2csc(NC(=O)CCCCCCC(=O)NO)n2)c1` [WR301801 (YC-II-88)], in the experiment with P. falciparum, the IC50 is 0.0006 to 0.0018 µM. Turning to `O=C1C(O)=C([C@H]2CC[C@H](c3ccc(Cl)cc3)CC2)C(=O)c2ccccc21` [Atovaquone], the IC50 in the experiment on HepG2 liver cells was over 10 µM. Regarding `Cc1ccc(C(=O)NOCCCCCC(=O)NO)cc1C` [Compound 1b], the “hyperacetylation of P. falciparum histone H3” value in the experiment on P. falciparum histone H3 is listed as “to a lesser extent”.

Take `Cc1cc(C)cc(C(=O)NOCCCCCC(=O)NO)c1` [Compound 1a]: the “human HDAC4 IC50” value in the experiment with human HDAC4 is “low nanomolar”. Also, the “human HDAC5 IC50” value in the experiment with human HDAC5 is “low nanomolar”.

Turning to `CCCCCOc1ccc(C(=O)NOCCCCCC(=O)NO)cc1` [Compound 1n, N-((6-(Hydroxyamino)-6-oxohexyl)oxy)-4-(pentyloxy)benzamide], the IC50 in experiment [2] is over 5 µM. Take `CCCCCCOc1ccc(C(=O)NOCCCCCC(=O)NO)cc1` [Compound 1s, 4-(Hexyloxy)-N-((6-(hydroxyamino)-6-oxohexyl)oxy)benzamide]: the IC50 in experiment [2] was over 5 µM. In the case of `CCCCc1nc2cc(/C=C/C(=O)NO)ccc2n1CCN(CC)CC` [SB939], the IC50 in the experiment on P. falciparum is 0.08 to 0.15 µM.

As usually defined, the IC50 is the concentration that gives 50% inhibition.
